Reference: ChEMBL document CHEMBL5137054, “Xyloketal B Reverses Nutritional Hepatic Steatosis, Steatohepatitis, and Liver Fibrosis through Activation of the PPARα/PGC1α Signaling Pathway” (J Nat Prod, 2022)
Active and inactive are the calls of the source. The calls are words filed in the database; no cut-off is given here.

How the values were obtained:
[1] = test system: Mus musculus; assay: Antifibrotic activity against MCD-induced C57BL/6J mouse model of liver fibrosis assessed as reduction in alphaSMA level in liver at 20 to 40 mg/kg, ip administered from week 3 to week 6 by […]; type: functional, organism-based; details: dose 20-40 mg/kg, time 4.0 weeks
[2] = Toxicity in C57BL/6J mouse assessed as effect on serum AST/ALT ratio at 40 mg/kg, ip; type: organism-based; details: in vivo
[3] = test system: Mus musculus; assay: Reduction in hepatic steatosis in HFD-induced C57BL/6J mouse model of NAFL assessed as reduction in serum glucose level at 20 to 40 mg/kg/day, ip administered from week 7 to week 12; type: functional, organism-based; details: dose 20-40 mg/kg/day, time 6.0 weeks
[4] = test system: Mus musculus; assay: Upregulation of ACAA1 enzyme expression in liver of HFD-induced C57BL/6J mouse model of NAFL at 15 mg/kg/day, ip administered from week 7 to week 12 by immunoblotting analysis; type: functional, organism-based; details: time 6.0 weeks
[5] = test system: Mus musculus; assay: Reduction in hepatic steatosis in HFD-induced C57BL/6J mouse model of NAFL assessed as reduction in HFD-induced body weight gain at 20 to 40 mg/kg/day, ip administered from week 7 to week 12; type: functional, organism-based; details: dose 20-40 mg/kg/day, time 6.0 weeks
[6] = test system: HepG2; assay: Inhibition of FFA-induced lipid accumulation in human HepG2 cells incubated for 24 hrs by Oil Red O staining based spectrophotometric analysis; type: functional, cell-based; details: dose 50-100 µM, DDE = dose-dependent effect
[7] = test system: Mus musculus; assay: Upregulation of Acaa1a gene transcriptional level in HFD-induced C57BL/6J mouse model of NAFL at 20 to 40 mg/kg/day, ip administered from week 7 to week 12 by qRT-PCR analysis; type: functional, organism-based; details: dose 20-40 mg/kg/day, time 6.0 weeks
[8] = test system: Mus musculus; assay: Upregulation of Acox1 gene transcriptional level in HFD-induced C57BL/6J mouse model of NAFL at 20 to 40 mg/kg/day, ip administered from week 7 to week 12 by qRT-PCR analysis; type: functional, organism-based; details: dose 20-40 mg/kg/day, time 6.0 weeks
[9] = test system: Mus musculus; assay: In vivo activation of PPARalpha/PGC1alpha pathway in HFD-induced C57BL/6J mouse model of NAFL assessed as increase in PGC1alpha expression in liver administered intraperitoneally from week 7 to week 12 by immunoblotting analysis; type: functional, organism-based; details: dose 20-40 mg/kg/day, route ip, time 6.0 weeks
[10] = test system: Mus musculus; assay: Reduction in hepatic steatosis in HFD-induced C57BL/6J mouse model of NAFL assessed as reduction in serum triglyceride level at 20 to 40 mg/kg/day, ip administered from week 7 to week 12; type: functional, organism-based; details: dose 20-40 mg/kg/day, time 6.0 weeks
[11] = Toxicity in C57BL/6J mouse assessed as effect on lipid droplets in hepatocytes at 40 mg/kg, ip by H&E staining analysis; type: organism-based; details: in vivo
[12] = Toxicity in C57BL/6J mouse assessed as effect on body weight at 40 mg/kg, ip; type: organism-based; details: in vivo
[13] = test system: Mus musculus; assay: Upregulation of cytochrome P450-4A10 enzyme expression in liver of HFD-induced C57BL/6J mouse model of NAFL at 15 mg/kg/day, ip administered from week 7 to week 12 by immunoblotting analysis; type: functional, organism-based; details: time 6.0 weeks
[14] = test system: Mus musculus; assay: Reduction in hepatic steatosis in HFD-induced C57BL/6J mouse model of NAFL assessed as reduction in serum AST/ALT ratio at 20 to 40 mg/kg/day, ip administered from week 7 to week 12; type: functional, organism-based; details: dose 20-40 mg/kg/day, time 6.0 weeks
[15] = Toxicity in C57BL/6J mouse assessed as effect on serum AST level at 40 mg/kg, ip; type: organism-based; details: in vivo
[16] = test system: Mus musculus; assay: Anti-inflammatory activity against MCD-induced C57BL/6J mouse model of nonalcoholic steatohepatitis assessed as attenuation of VCAM1 expression in liver at 20 to 40 mg/kg/day, ip administered from week 3 to week 4 by immunoblotting analysis; type: functional, organism-based; details: dose 20-40 mg/kg/day, time 2.0 weeks
[17] = test system: Mus musculus; assay: Upregulation of peroxisomal bifunctional enzyme gene transcriptional level in HFD-induced C57BL/6J mouse model of NAFL at 20 to 40 mg/kg/day, ip administered from week 7 to week 12 by qRT-PCR analysis; type: functional, organism-based; details: dose 20-40 mg/kg/day, time 6.0 weeks
[18] = test system: Mus musculus; assay: Anti-inflammatory activity against MCD-induced C57BL/6J mouse model of nonalcoholic steatohepatitis assessed as attenuation of ICAM1 expression in liver at 20 to 40 mg/kg/day, ip administered from week 3 to week 4 by immunoblotting analysis; type: functional, organism-based; details: dose 20-40 mg/kg/day, time 2.0 weeks
[19] = test system: Mus musculus; assay: Antifibrotic activity against MCD-induced C57BL/6J mouse model of liver fibrosis assessed as reduction in collagen III level in liver at 20 to 40 mg/kg, ip administered from week 3 to week 6 by sirius red staining based light microscopic analysis; type: functional, organism-based; details: dose 20-40 mg/kg, time 4.0 weeks
[20] = test system: Mus musculus; assay: Upregulation of peroxisomal acyl-coenzyme A oxidase-2 enzyme expression in liver of HFD-induced C57BL/6J mouse model of NAFL at 15 mg/kg/day, ip administered from week 7 to week 12 by immunoblotting analysis; type: functional, organism-based; details: time 6.0 weeks
[21] = test system: Mus musculus; assay: In vivo activation of PPARalpha/PGC1alpha pathway in HFD-induced C57BL/6J mouse model of NAFL assessed as increase in PPARalpha expression in liver administered intraperitoneally from week 7 to week 12 by immunoblotting analysis; type: functional, organism-based; details: dose 20-40 mg/kg/day, route ip, time 6.0 weeks, DDE = dose-dependent effect
[22] = test system: Mus musculus; assay: Reduction in hepatic steatosis in HFD-induced C57BL/6J mouse model of NAFL assessed as reduction in number of lipid droplets in hepatocytes at 20 to 40 mg/kg/day, ip administered from week 7 to week 12 by H&E staining analysis; type: functional, organism-based; details: dose 20-40 mg/kg/day, time 6.0 weeks
[23] = test system: Mus musculus; assay: Upregulation of ACAA1 enzyme expression in liver of HFD-induced C57BL/6J mouse model of NAFL administered intraperitoneally from week 7 to week 12 by immunoblotting analysis; type: functional; details: dose 20-40 mg/kg/day, route ip, time 6.0 weeks, DDE = dose-dependent effect
[24] = test system: Mus musculus; assay: Reduction in hepatic steatosis in HFD-induced C57BL/6J mouse model of NAFL assessed as increase in serum ApoE level at 20 to 40 mg/kg/day, ip administered from week 7 to week 12; type: functional, organism-based; details: dose 20-40 mg/kg/day, time 6.0 weeks
[25] = test system: Mus musculus; assay: Reduction in hepatic steatosis in HFD-induced C57BL/6J mouse model of NAFL assessed as reduction in serum LDL level at 20 to 40 mg/kg/day, ip administered from week 7 to week 12; type: functional, organism-based; details: dose 20-40 mg/kg/day, time 6.0 weeks
[26] = test system: Mus musculus; assay: Antifibrotic activity against MCD-induced C57BL/6J mouse model of liver fibrosis assessed as reduction in collagen I level in liver at 20 to 40 mg/kg, ip administered from week 3 to week 6 by sirius red staining based light microscopic analysis; type: functional, organism-based; details: dose 20-40 mg/kg, time 4.0 weeks
[27] = test system: Mus musculus; assay: Upregulation of long-chain specific acyl-CoA dehydrogenase gene transcriptional level in HFD-induced C57BL/6J mouse model of NAFL at 20 to 40 mg/kg/day, ip administered from week 7 to week 12 by qRT-PCR analysis; type: functional, organism-based; details: dose 20-40 mg/kg/day, time 6.0 weeks
[28] = test system: Mus musculus; assay: Upregulation of Cpt1a gene transcriptional level in HFD-induced C57BL/6J mouse model of NAFL at 20 to 40 mg/kg/day, ip administered from week 7 to week 12 by qRT-PCR analysis; type: functional, organism-based; details: dose 20-40 mg/kg/day, time 6.0 weeks
[29] = test system: Mus musculus; assay: Antifibrotic activity against MCD-induced C57BL/6J mouse model of liver fibrosis assessed as reduction in number of collagenous fibers in liver at 20 to 40 mg/kg, ip administered from week 3 to week 6 by masson's trichrome staining based light microscopic analysis; type: functional, organism-based; details: dose 20-40 mg/kg, time 4.0 weeks

SMILES: C[C@H]1CO[C@]2(C)Oc3cc(O)c4c(c3C[C@H]12)O[C@@]1(C)OC[C@H](C)[C@H]1C4
- Activity [1]: Active
- Activity [2]: Non-Toxic
- Activity [3]: Active
- Activity [4]: Active
- Activity [5]: Active
- inhibition [6]: Dde
- Activity [7]: Active
- Activity [8]: Active
- Activity [9]: Active
- Activity [10]: Active
- Activity [11]: Non-Toxic
- Activity [12]: Non-Toxic
- Activity [13]: Active
- Activity [14]: Active
- Activity [15]: Non-Toxic
- Activity [16]: Active
- Activity [17]: Active
- Activity [18]: Active
- Activity [19]: Active
- Activity [20]: Active
- Activity [21]: Dde
- Activity [22]: Active
- Activity [23]: Dde
- Activity [24]: Active
- Activity [25]: Active
- Activity [26]: Active
- Activity [27]: Active
- Activity [28]: Active
- Activity [29]: Active
